In ChEMBL document CHEMBL4507284, “Data for DCP probe BI-1230” (2021):

Experiments:
[1] = target: ALK tyrosine kinase receptor (Homo sapiens) (UniProt Q9UM73); conditions: Compound concentration 1000.0 nM
[2] = target: 5-hydroxytryptamine receptor 1D (Homo sapiens) (UniProt P28221); conditions: Compound concentration 10.0 uM
[3] = target: Dual specificity protein kinase TTK (Homo sapiens) (UniProt P33981); conditions: Compound concentration 1000.0 nM
[4] = target: Mitogen-activated protein kinase kinase kinase kinase 4 (Homo sapiens) (UniProt O95819); conditions: Compound concentration 1000.0 nM
[5] = target: Casein kinase I isoform gamma-3 (Homo sapiens) (UniProt Q9Y6M4); conditions: Compound concentration 1000.0 nM
[6] = target: Calcium-dependent protein kinase 1 (Plasmodium falciparum) (UniProt P62344); conditions: Compound concentration 1000.0 nM
[7] = target: Serine/threonine-protein kinase Nek9 (Homo sapiens) (UniProt Q8TD19); conditions: Compound concentration 1000.0 nM
[8] = target: Alpha-2A adrenergic receptor (Homo sapiens) (UniProt P08913); conditions: Compound concentration 10.0 uM
[9] = target: D(3) dopamine receptor (Homo sapiens) (UniProt P35462); conditions: Compound concentration 10.0 uM
[10] = test system: Leucine-rich repeat serine/threonine-protein kinase 2 (Homo sapiens), Q5S007 [G2019S]; conditions: Compound concentration 1000.0 nM
Leucine-rich repeat serine/threonine-protein kinase 2 (Homo sapiens), Q5S007 [G2019S], sequence (Q5S007 whole entry G2019S, canonical isoform): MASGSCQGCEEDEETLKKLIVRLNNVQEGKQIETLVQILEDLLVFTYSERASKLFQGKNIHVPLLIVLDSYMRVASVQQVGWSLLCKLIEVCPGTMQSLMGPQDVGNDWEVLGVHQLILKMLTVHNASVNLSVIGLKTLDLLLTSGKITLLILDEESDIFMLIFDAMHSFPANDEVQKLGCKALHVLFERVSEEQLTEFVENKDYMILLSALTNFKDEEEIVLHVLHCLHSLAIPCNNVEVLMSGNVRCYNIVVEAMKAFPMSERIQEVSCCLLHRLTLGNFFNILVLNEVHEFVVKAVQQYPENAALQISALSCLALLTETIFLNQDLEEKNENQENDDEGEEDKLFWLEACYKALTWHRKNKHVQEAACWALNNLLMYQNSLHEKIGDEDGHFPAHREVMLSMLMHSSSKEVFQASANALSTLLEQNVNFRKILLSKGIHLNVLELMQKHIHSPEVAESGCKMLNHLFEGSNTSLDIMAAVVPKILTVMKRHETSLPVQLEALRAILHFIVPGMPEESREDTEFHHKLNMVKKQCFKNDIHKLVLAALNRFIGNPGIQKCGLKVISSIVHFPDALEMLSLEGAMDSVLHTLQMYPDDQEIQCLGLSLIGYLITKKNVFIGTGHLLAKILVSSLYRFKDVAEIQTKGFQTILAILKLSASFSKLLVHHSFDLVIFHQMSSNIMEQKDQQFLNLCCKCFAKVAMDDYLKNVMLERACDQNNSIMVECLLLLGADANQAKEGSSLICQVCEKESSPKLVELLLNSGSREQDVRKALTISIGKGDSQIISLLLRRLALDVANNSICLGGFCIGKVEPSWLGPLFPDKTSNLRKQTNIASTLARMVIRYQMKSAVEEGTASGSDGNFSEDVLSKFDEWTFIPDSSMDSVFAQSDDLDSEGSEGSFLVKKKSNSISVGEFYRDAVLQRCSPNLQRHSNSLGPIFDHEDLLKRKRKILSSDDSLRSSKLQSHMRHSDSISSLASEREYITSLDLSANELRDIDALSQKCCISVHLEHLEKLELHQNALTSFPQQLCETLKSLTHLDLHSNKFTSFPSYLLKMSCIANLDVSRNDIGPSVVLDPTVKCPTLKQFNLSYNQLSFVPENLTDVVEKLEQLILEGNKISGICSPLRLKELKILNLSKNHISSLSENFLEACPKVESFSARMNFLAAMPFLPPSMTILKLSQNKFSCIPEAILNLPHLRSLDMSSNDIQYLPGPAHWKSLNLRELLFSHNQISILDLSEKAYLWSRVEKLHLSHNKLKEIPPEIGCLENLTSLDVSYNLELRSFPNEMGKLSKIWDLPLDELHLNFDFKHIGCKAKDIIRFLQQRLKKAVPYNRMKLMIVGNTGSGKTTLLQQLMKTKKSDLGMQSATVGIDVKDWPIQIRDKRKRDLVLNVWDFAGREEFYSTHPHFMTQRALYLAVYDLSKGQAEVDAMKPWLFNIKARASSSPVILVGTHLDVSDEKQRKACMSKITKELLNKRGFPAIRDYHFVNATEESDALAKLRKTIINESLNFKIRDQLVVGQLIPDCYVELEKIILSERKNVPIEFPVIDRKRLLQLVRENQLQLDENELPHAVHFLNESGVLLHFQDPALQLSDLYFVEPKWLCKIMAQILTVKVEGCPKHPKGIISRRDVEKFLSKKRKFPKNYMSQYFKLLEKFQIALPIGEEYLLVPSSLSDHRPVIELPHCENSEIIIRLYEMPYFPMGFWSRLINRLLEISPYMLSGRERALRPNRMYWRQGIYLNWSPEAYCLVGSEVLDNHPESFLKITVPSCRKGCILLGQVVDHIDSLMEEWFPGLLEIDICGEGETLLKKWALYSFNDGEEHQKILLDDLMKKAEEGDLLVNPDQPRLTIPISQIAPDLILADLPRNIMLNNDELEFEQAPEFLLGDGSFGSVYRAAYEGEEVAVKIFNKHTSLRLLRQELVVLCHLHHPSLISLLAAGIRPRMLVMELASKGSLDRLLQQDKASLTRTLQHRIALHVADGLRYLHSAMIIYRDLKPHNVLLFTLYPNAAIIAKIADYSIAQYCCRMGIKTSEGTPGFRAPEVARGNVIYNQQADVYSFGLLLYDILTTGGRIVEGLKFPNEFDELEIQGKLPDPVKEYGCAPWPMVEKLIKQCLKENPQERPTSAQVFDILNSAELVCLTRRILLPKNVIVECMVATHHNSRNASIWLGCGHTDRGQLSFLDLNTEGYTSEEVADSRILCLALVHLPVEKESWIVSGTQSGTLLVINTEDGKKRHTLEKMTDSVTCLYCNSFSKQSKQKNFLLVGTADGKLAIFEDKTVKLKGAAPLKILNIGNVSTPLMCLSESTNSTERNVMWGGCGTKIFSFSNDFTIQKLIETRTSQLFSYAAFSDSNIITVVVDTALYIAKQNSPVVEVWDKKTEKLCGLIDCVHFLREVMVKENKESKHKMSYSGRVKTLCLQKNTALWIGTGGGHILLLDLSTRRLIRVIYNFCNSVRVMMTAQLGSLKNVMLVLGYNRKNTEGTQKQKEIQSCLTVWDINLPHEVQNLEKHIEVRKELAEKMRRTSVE

[11] = test system: Phosphatidylinositol 4,5-bisphosphate 3-kinase catalytic subunit alpha isoform (Homo sapiens), P42336 [M1043I]; conditions: Compound concentration 1000.0 nM
[12] = target: Tyrosine-protein kinase CSK (Homo sapiens) (UniProt P41240); conditions: Compound concentration 1000.0 nM
[13] = target: Protein kinase C iota type (Homo sapiens) (UniProt P41743); conditions: Compound concentration 1000.0 nM
[14] = target: Phosphatidylinositol 4-phosphate 5-kinase type-1 alpha (Homo sapiens) (UniProt Q99755); conditions: Compound concentration 1000.0 nM
[15] = target: Mitogen-activated protein kinase kinase kinase 6 (Homo sapiens) (UniProt O95382); conditions: Compound concentration 1000.0 nM
[16] = target: Alpha-2C adrenergic receptor (Homo sapiens) (UniProt P18825); conditions: Compound concentration 10.0 uM
[17] = target: D(1B) dopamine receptor (Homo sapiens) (UniProt P21918); conditions: Compound concentration 10.0 uM
[18] = target: Serine/threonine-protein kinase RIO1 (Homo sapiens) (UniProt Q9BRS2); conditions: Compound concentration 1000.0 nM
[19] = target: Proto-oncogene tyrosine-protein kinase receptor Ret (Homo sapiens) (UniProt P07949); conditions: Compound concentration 1000.0 nM
[20] = target: Serine/threonine-protein kinase 35 (Homo sapiens) (UniProt Q8TDR2); conditions: Compound concentration 1000.0 nM
[21] = target: Cyclin-dependent kinase 15 (Homo sapiens) (UniProt Q96Q40); conditions: Compound concentration 1000.0 nM
[22] = target: Calcium/calmodulin-dependent protein kinase type 1B (Homo sapiens) (UniProt Q6P2M8); conditions: Compound concentration 1000.0 nM
Calcium/calmodulin-dependent protein kinase type 1B (Homo sapiens), sequence (Q6P2M8 whole entry): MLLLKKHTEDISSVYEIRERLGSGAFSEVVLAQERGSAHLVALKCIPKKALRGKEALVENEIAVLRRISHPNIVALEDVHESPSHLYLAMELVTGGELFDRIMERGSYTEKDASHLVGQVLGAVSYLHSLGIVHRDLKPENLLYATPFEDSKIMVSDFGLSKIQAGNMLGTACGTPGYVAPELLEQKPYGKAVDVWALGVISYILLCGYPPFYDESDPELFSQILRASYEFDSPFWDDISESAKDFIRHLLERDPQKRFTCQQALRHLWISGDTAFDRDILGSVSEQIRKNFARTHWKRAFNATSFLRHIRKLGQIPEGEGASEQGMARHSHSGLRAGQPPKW

[23] = target: Leukocyte tyrosine kinase receptor (Homo sapiens) (UniProt P29376); conditions: Compound concentration 1000.0 nM
[24] = target: Receptor-type tyrosine-protein kinase FLT3 (Homo sapiens) (UniProt P36888); conditions: Compound concentration 1000.0 nM
Receptor-type tyrosine-protein kinase FLT3 (Homo sapiens), sequence (P36888 whole entry, canonical isoform): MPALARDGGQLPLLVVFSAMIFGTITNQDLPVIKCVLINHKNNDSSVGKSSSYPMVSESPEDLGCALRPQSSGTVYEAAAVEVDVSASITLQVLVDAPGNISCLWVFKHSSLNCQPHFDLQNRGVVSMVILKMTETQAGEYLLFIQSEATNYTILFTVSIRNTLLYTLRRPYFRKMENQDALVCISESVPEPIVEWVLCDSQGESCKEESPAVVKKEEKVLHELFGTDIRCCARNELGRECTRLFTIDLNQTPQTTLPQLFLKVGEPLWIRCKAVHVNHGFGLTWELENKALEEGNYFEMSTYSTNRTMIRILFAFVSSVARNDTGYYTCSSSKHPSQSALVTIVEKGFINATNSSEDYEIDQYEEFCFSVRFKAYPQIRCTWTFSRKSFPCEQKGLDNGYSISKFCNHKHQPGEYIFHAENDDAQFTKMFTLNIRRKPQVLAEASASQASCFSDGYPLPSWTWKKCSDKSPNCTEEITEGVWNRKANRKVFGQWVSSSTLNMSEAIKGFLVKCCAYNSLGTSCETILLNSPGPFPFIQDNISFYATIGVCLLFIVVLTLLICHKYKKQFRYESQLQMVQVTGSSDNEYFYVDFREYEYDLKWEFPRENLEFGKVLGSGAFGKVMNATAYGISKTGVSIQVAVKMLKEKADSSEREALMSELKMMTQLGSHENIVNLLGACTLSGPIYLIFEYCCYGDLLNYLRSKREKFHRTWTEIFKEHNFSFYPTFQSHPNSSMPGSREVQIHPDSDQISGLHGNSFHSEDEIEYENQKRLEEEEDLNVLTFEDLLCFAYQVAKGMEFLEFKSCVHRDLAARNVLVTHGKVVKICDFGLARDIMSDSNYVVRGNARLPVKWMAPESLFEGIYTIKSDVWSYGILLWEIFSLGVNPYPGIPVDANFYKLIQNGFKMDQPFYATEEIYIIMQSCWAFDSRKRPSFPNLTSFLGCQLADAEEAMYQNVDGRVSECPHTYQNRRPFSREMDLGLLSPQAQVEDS

[25] = test system: Phosphatidylinositol 4,5-bisphosphate 3-kinase catalytic subunit alpha isoform (Homo sapiens), P42336 [C420R]; conditions: Compound concentration 1000.0 nM
[26] = test system: Tyrosine-protein kinase ABL1 (Homo sapiens), P00519 [F317L]; conditions: Compound concentration 1000.0 nM
Tyrosine-protein kinase ABL1 (Homo sapiens), P00519 [F317L], sequence (P00519 whole entry F317L): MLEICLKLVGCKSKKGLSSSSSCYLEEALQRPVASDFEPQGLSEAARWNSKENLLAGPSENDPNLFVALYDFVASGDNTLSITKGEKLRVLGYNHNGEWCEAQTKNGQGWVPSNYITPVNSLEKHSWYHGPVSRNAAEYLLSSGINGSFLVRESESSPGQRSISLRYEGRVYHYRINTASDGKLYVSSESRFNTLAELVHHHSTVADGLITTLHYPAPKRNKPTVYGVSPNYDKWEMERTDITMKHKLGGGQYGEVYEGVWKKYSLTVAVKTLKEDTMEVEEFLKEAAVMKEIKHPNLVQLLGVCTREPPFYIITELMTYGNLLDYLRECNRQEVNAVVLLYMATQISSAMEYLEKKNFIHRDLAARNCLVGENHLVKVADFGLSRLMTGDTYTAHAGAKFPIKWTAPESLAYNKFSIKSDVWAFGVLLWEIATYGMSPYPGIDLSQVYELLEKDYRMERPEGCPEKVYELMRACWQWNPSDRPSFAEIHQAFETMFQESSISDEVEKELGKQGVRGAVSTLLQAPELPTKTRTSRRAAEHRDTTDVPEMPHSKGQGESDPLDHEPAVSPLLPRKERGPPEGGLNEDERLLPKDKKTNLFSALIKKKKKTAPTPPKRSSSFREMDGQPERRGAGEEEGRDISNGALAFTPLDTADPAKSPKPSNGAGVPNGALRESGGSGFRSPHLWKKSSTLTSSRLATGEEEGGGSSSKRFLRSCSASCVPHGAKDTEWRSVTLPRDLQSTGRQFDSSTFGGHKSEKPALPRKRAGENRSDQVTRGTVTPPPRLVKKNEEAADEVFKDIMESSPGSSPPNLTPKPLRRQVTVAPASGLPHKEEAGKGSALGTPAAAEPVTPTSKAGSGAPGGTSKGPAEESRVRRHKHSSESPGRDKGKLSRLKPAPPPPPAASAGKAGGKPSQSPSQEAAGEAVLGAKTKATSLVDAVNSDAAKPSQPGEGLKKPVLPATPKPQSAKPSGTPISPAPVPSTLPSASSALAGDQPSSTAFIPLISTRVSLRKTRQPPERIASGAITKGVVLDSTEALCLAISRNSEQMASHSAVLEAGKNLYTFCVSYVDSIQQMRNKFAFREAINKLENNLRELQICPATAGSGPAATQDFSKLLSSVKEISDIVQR

[27] = target: Mitogen-activated protein kinase kinase kinase 2 (Homo sapiens) (UniProt Q9Y2U5); conditions: Compound concentration 1000.0 nM
[28] = target: Ephrin type-B receptor 6 (Homo sapiens) (UniProt O15197); conditions: Compound concentration 1000.0 nM
[29] = target: Mitogen-activated protein kinase 6 (Homo sapiens) (UniProt Q16659); conditions: Compound concentration 1000.0 nM
[30] = target: Serine/threonine-protein kinase 33 (Homo sapiens) (UniProt Q9BYT3); conditions: Compound concentration 1000.0 nM
[31] = target: 5-hydroxytryptamine receptor 5A (Homo sapiens) (UniProt P47898); conditions: Compound concentration 10.0 uM
[32] = target: Homeodomain-interacting protein kinase 1 (Homo sapiens) (UniProt Q86Z02); conditions: Compound concentration 1000.0 nM
[33] = target: Tyrosine-protein kinase ABL2 (Homo sapiens) (UniProt P42684); conditions: Compound concentration 1000.0 nM
[34] = target: Wee1-like protein kinase (Homo sapiens) (UniProt P30291); conditions: Compound concentration 1000.0 nM
[35] = target: Dual specificity mitogen-activated protein kinase kinase 7 (Homo sapiens) (UniProt O14733); conditions: Compound concentration 1000.0 nM
[36] = target: Ribosomal protein S6 kinase alpha-1 (Homo sapiens) (UniProt Q15418); conditions: Compound concentration 1000.0 nM
[37] = target: Mitogen-activated protein kinase kinase kinase kinase 5 (Homo sapiens) (UniProt Q9Y4K4); conditions: Compound concentration 1000.0 nM
[38] = test system: Tyrosine-protein kinase ABL1 (Homo sapiens), P00519 [F317L]; conditions: Compound concentration 1000.0 nM; remark: listed apart in the source
[39] = target: Platelet-derived growth factor receptor beta (Homo sapiens) (UniProt P09619); conditions: Compound concentration 1000.0 nM
[40] = target: Transient receptor potential cation channel subfamily M member 6 (Homo sapiens) (UniProt Q9BX84); conditions: Compound concentration 1000.0 nM
[41] = target: Dual specificity protein kinase CLK3 (Homo sapiens) (UniProt P49761); conditions: Compound concentration 1000.0 nM
[42] = target: Serine/threonine-protein kinase mTOR (Homo sapiens) (UniProt P42345); conditions: Compound concentration 1000.0 nM
[43] = target: Epidermal growth factor receptor (Homo sapiens) (UniProt P00533); conditions: Compound concentration 1000.0 nM
[44] = target: G protein-coupled receptor kinase 4 (Homo sapiens) (UniProt P32298); conditions: Compound concentration 1000.0 nM
[45] = test system: Epidermal growth factor receptor (Homo sapiens), P00533 [G719C]; conditions: Compound concentration 1000.0 nM

COc1ccc2c(O[C@@H]3C[C@H]4C(=O)N[C@]5(C(=O)O)CC5/C=C\CCCCC[C@H](NC(=O)OC5CCCC5)C(=O)N4C3)cc(-c3csc(NC(=O)C(C)C)n3)nc2c1C (stereo not given in full) [BI 1230] showed a residual activity [1] of 74%, an inhibition [2] of 32.5% and a residual activity [3] of 100%. It also gave a residual activity [4] of 100%, a residual activity [5] of 100% and a residual activity [6] of 100%. For the same compound, the residual activity [7] was 100%, the inhibition [8] was 15.3% and the inhibition [9] was -9.2%. The residual activity [10] was 91%, the residual activity [11] was 88% and the residual activity [12] was 100%. The residual activity [13] was 96%, the residual activity [14] was 98% and the residual activity [15] was 98%. For the same compound, the inhibition [16] was 56.8%, the inhibition [17] was 47.1% and the residual activity [18] was 93%. For the same compound, the residual activity [19] was 91%, the residual activity [20] was 100% and the residual activity [21] was 100%. The residual activity [22] was 88%, the residual activity [23] was 100% and the residual activity [24] was 87%. The residual activity [25] was 100%, the residual activity [26] was 75% and the residual activity [27] was 100%. For the same compound, the residual activity [28] was 89%, the residual activity [29] was 93% and the residual activity [30] was 54%. The inhibition [31] was 22.1%, the residual activity [32] was 77% and the residual activity [33] was 98%. For the same compound, the residual activity [34] was 100%, the residual activity [35] was 81% and the residual activity [36] was 100%. For the same compound, the residual activity [37] was 100%, the residual activity [38] was 99% and the residual activity [39] was 94%. For the same compound, the residual activity [40] was 100%, the residual activity [41] was 100% and the residual activity [42] was 100%. It also gave a residual activity [43] of 92%, a residual activity [44] of 67% and a residual activity [45] of 76%.

Compound O=C(N[C@H]1CCCCC/C=C\C2C[C@@]2(C(=O)O)NC(=O)[C@@H]2C[C@@H](Oc3ccncc3)CN2C1=O)OC1CCCC1 (stereo not given in full) [BI 1675] has a residual activity [1] of 100%, an inhibition [2] of 3.22% and a residual activity [3] of 79%. For the same compound, the residual activity [4] was 100%, the residual activity [5] was 100% and the residual activity [6] was 73%. For the same compound, the residual activity [7] was 100%, the inhibition [8] was 0.78% and the inhibition [9] was 12.7%. It also gave a residual activity [10] of 86%, a residual activity [11] of 84% and a residual activity [12] of 96%. For the same compound, the residual activity [13] was 100%, the residual activity [14] was 99% and the residual activity [15] was 100%. The inhibition [16] was -4.47%, the inhibition [17] was 11.3% and the residual activity [18] was 63%. The residual activity [19] was 94%, the residual activity [20] was 100% and the residual activity [21] was 100%. For the same compound, the residual activity [22] was 99%, the residual activity [23] was 99% and the residual activity [24] was 100%. For the same compound, the residual activity [25] was 100%, the residual activity [26] was 100% and the residual activity [27] was 69%. For the same compound, the residual activity [28] was 89%, the residual activity [29] was 92% and the residual activity [30] was 89%. For the same compound, the inhibition [31] was 1.81%, the residual activity [32] was 86% and the residual activity [33] was 100%. The residual activity [34] was 100%, the residual activity [35] was 91% and the residual activity [36] was 82%. For the same compound, the residual activity [37] was 100%, the residual activity [38] was 100% and the residual activity [39] was 87%. It also gave a residual activity [40] of 98%, a residual activity [41] of 93% and a residual activity [42] of 100%. The residual activity [43] was 99%, the residual activity [44] was 80% and the residual activity [45] was 59%.
